Structures are written as SMILES.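 Compound exposure: 48 hours, 5 concentrations, 96-well plates. Abbreviation: GI50, concentration required for 50% inhibition of growth.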 Activity calls are given as the source filed them. No stated cut-off is given here; in the data, active = GI50 up to about 1.1 µM and inactive = higher. Some results are limits rather than exact numbers.

In general, GI50 refers to the concentration giving 50% growth inhibition.

Test systems include NCI/ADR-RES; ACHN; A498; A549; MOLT-4; SF-539; U-251; PC-3; HCC 2998; SW-620; MDA-N; UO-31; HCT-15; NCI-H460; EKVX; OVCAR-5; NCI-H23; CAKI-1; UACC-257; Hs-578T.
What all share (assay): DTP human tumour cell line panel, 48 h

As to `CC1=[N+]([O-])C(C)(C)N(O)C1(C)C`, the GI50 in the assay with NCI/ADR-RES, in the assay with ACHN, with A498, in the assay with A549, with MOLT-4 and in the assay on SF-539 was > 100 µM (inactive) in each case. The GI50 in the assay with U-251, with PC-3, in the assay with HCC 2998, with SW-620, in the assay with MDA-N and in the assay with UO-31 was > 100 µM (inactive) throughout. Besides, the concentration for 50% growth inhibition (GI50) is more than 100 µM in the assay on HCT-15; > 100 µM (inactive) in the assay on NCI-H460; > 100 µM (inactive) in the assay with EKVX; > 100 µM (inactive) with OVCAR-5; > 100 µM (inactive) in the assay with NCI-H23.
For the molecule `Cn1c(-c2ccc(C=O)o2)ccc1-c1ccc(C=O)o1`, the GI50 in the assay with NCI/ADR-RES was 35.7 µM (inactive); in the assay with ACHN, 31.7 µM (inactive); with A498 it was > 100 µM (inactive); in the assay on CAKI-1, 12.5 µM (inactive); in the assay on A549, > 100 µM (inactive); in the assay with MOLT-4, 24.8 µM (inactive). The GI50 is 34.5 µM (inactive) in the assay on SF-539; 40.7 µM (inactive) with U-251; 39.4 µM (inactive) in the assay with PC-3; > 100 µM (inactive) in the assay with HCC 2998; 35.4 µM (inactive) in the assay with SW-620; 33.4 µM (inactive) in the assay with MDA-N. In addition, the GI50 is 35.3 µM (inactive) with UO-31; 34 µM in the assay on HCT-15; > 100 µM (inactive) in the assay on NCI-H460; 51.4 µM (inactive) with UACC-257; 54.1 µM (inactive) in the assay with EKVX; > 100 µM (inactive) in the assay with OVCAR-5. Further, the GI50 in the assay on NCI-H23 was 45.7 µM (inactive).
Regarding `NC(CCC(=O)O)(CCC(=O)O)CCC(=O)O`, the GI50 in the assay with NCI/ADR-RES, in the assay with ACHN, with CAKI-1, with A549, in the assay on MOLT-4 and with SF-539 was > 100 µM (inactive) in each case. Also, the GI50 in the assay on U-251, in the assay with PC-3, in the assay with Hs-578T, in the assay with SW-620, in the assay with MDA-N and in the assay on UO-31 was > 100 µM (inactive) throughout. Also, the GI50 is more than 100 µM in the assay with HCT-15; > 100 µM (inactive) with NCI-H460; > 100 µM (inactive) in the assay with UACC-257; > 100 µM (inactive) with EKVX; > 100 µM (inactive) in the assay on OVCAR-5; > 100 µM (inactive) with NCI-H23.
On to `OC(c1ccc(F)cc1)C(F)(F)c1nc(-c2ccccc2)no1` (stereo not drawn), for which the GI50 in the assay on NCI/ADR-RES is 30.6 µM (inactive); in the assay with ACHN, 27.2 µM (inactive); in the assay with A498, 22.6 µM (inactive); with CAKI-1, 27 µM (inactive); in the assay on U-251, 0.126 µM (active); with PC-3, 21.8 µM (inactive). For the same molecule, the GI50 in the assay on Hs-578T was 30.5 µM (inactive); in the assay on SW-620 it was 19.3 µM (inactive); with MDA-N, 23.8 µM (inactive); with UO-31, 19 µM (inactive); in the assay with HCT-15 it was 23.9 µM; in the assay with NCI-H460, 0.0632 µM (active). The GI50 in the assay with UACC-257 is 19.6 µM (inactive); with EKVX it was 22.9 µM (inactive); in the assay with OVCAR-5, 18.1 µM (inactive); in the assay with NCI-H23 it was 26.1 µM (inactive).
`CC(C)(C)OC[C@H](O)CC#N`: the GI50 with ACHN, in the assay with A498, in the assay on CAKI-1, in the assay on A549, in the assay with MOLT-4 and with SF-539 was > 100 µM (inactive) each time. The GI50 with U-251, in the assay on PC-3, with Hs-578T, in the assay on HCC 2998, with SW-620 and with MDA-N was > 100 µM (inactive) each time. The GI50 with UO-31 was > 100 µM (inactive); in the assay on HCT-15, more than 100 µM; with NCI-H460 it was > 100 µM (inactive); with UACC-257 it was > 100 µM (inactive); with EKVX, > 100 µM (inactive); with OVCAR-5 it was > 100 µM (inactive). Further, the GI50 with NCI-H23 is > 100 µM (inactive).
Take `COc1ccc2nc3ccc(OC)cc3c(S(=O)(=O)Cc3ccc([N+](=O)[O-])cc3)c2c1`: the GI50 in the assay on NCI/ADR-RES, in the assay with ACHN, in the assay with A498, in the assay with CAKI-1, in the assay on A549 and in the assay with MOLT-4 was > 100 µM (inactive) in each case. Moreover, the GI50 in the assay with SF-539, in the assay with U-251, in the assay on PC-3, in the assay with HCC 2998, with SW-620 and in the assay with MDA-N was > 100 µM (inactive) in each case. Besides, the GI50 was > 100 µM (inactive) in the assay with UO-31; more than 100 µM in the assay on HCT-15; > 100 µM (inactive) in the assay with NCI-H460; > 100 µM (inactive) with UACC-257; > 100 µM (inactive) in the assay on EKVX; > 100 µM (inactive) in the assay with OVCAR-5. For the same molecule, the GI50 in the assay with NCI-H23 is > 100 µM (inactive).
Take `COc1ccc2c(c1)CCN=C2Cc1ccccc1CCCl`: the GI50 in the assay with NCI/ADR-RES was 19.1 µM (inactive); in the assay on ACHN it was 30.1 µM (inactive); in the assay on A498 it was 51.9 µM (inactive); in the assay on CAKI-1 it was 22.1 µM (inactive); with A549, 28.6 µM (inactive); with MOLT-4 it was 23.7 µM (inactive). Besides, the GI50 is 20.5 µM (inactive) in the assay on SF-539; 33.1 µM (inactive) in the assay with U-251; 25.8 µM (inactive) with PC-3; 62.4 µM (inactive) in the assay with Hs-578T; 17.1 µM (inactive) in the assay on HCC 2998; 26.1 µM (inactive) with SW-620. The GI50 with UO-31 was 16.5 µM (inactive); in the assay with HCT-15, 20.6 µM; with NCI-H460, 15.4 µM (inactive); in the assay with UACC-257, 30.7 µM (inactive); with EKVX it was 37.2 µM (inactive); in the assay on OVCAR-5, 40.5 µM (inactive). Further, the GI50 in the assay with NCI-H23 is 20.8 µM (inactive).
In the case of `CC(C)(C)OC(=O)NCC(=O)N1CCN(C(=O)CNC(=O)OC(C)(C)C)CC1`, the GI50 in the assay with NCI/ADR-RES, in the assay on ACHN, in the assay with A498, in the assay with CAKI-1, in the assay on A549 and in the assay with MOLT-4 was > 100 µM (inactive) in each case. The GI50 in the assay with SF-539, in the assay on U-251, in the assay with PC-3, in the assay with HCC 2998, in the assay with SW-620 and in the assay on MDA-N was > 100 µM (inactive) in each case. Also, the GI50 with UO-31 is > 100 µM (inactive); in the assay on HCT-15 it was more than 100 µM; in the assay on UACC-257, > 100 µM (inactive); with EKVX it was > 100 µM (inactive); in the assay on OVCAR-5, > 100 µM (inactive); in the assay on NCI-H23, > 100 µM (inactive).
Consider `Oc1ccc2c(c1)-c1c(c3cc(O)ccc3n1CCN1CCOCC1)CC2`, for which the GI50 is 24.8 µM (inactive) with NCI/ADR-RES; 30.5 µM (inactive) in the assay with ACHN; 21 µM (inactive) with A498; 24.9 µM (inactive) in the assay with CAKI-1; 28.4 µM (inactive) in the assay with A549; 19.6 µM (inactive) with MOLT-4. The GI50 is 22.6 µM (inactive) in the assay with SF-539; 19.7 µM (inactive) in the assay with U-251; 18.4 µM (inactive) in the assay on PC-3; 27 µM (inactive) in the assay on Hs-578T; 16.9 µM (inactive) in the assay with HCC 2998; 23 µM (inactive) in the assay on SW-620. Besides, the GI50 was 17.5 µM (inactive) in the assay on UO-31; 19.2 µM in the assay with HCT-15; 36.6 µM (inactive) in the assay with UACC-257; 30.8 µM (inactive) with EKVX; 34.8 µM (inactive) in the assay on OVCAR-5; 25.3 µM (inactive) in the assay on NCI-H23.
Take `C=C(C)C(=O)O[C@H]1CC2(CO)O[C@@H]2CC/C(COC(C)=O)=C/C2OC(=O)C(=C)[C@@H]21` (stereo partly drawn): the GI50 in the assay on NCI/ADR-RES is 45.6 µM (inactive); with ACHN, 26.1 µM (inactive); in the assay with A498, > 100 µM (inactive); in the assay on CAKI-1, 28.8 µM (inactive); with A549 it was > 100 µM (inactive); in the assay with MOLT-4, 7.93 µM (inactive). For the same molecule, the GI50 in the assay with SF-539 was 74.8 µM (inactive); with U-251 it was > 100 µM (inactive); in the assay on PC-3, 56.1 µM (inactive); in the assay on Hs-578T, > 92.5 µM (inactive); in the assay on HCC 2998, 44.6 µM (inactive); in the assay on SW-620, 19.6 µM (inactive). Moreover, the GI50 was 22.5 µM (inactive) in the assay on UO-31; 26.2 µM with HCT-15; > 100 µM (inactive) with NCI-H460; 20 µM (inactive) in the assay with UACC-257; > 100 µM (inactive) with EKVX; > 100 µM (inactive) with OVCAR-5. Further, in the assay with NCI-H23, the GI50 was 42.2 µM (inactive).
As for `C[N+](C)(C)CC1CCC(C[N+](C)(C)C)C1=O` (stereo not drawn), the GI50 in the assay on ACHN is 1.82 µM (inactive); in the assay with A498, 6.78 µM (inactive); in the assay on CAKI-1, 0.668 µM (active); in the assay with A549 it was 18.7 µM (inactive); in the assay on SF-539 it was 7.74 µM (inactive); in the assay on U-251 it was 9.12 µM (inactive). The GI50 with PC-3 is 17.2 µM (inactive); in the assay on Hs-578T it was 38.6 µM (inactive); in the assay with HCC 2998 it was 8.63 µM (inactive); in the assay on MDA-N it was 4.94 µM (inactive); with UO-31 it was 4.34 µM (inactive); with HCT-15, 1.78 µM. The GI50 in the assay with NCI-H460 is 24.3 µM (inactive); with UACC-257, 2.92 µM (inactive); with OVCAR-5, 7.28 µM (inactive); in the assay on NCI-H23 it was 4.22 µM (inactive).

These data come from ChEMBL document CHEMBL1201862, “PubChem BioAssay data set” (2004).
